Test results: PubChem BioAssay AID1053171 (The Scripps Research Institute Molecular Screening Center, 2014)
The source made the active and inactive calls. The rule behind the calls is not given here.

Biological target: HIV-1 integrase (multimerization)
Assay: compounds increasing HIV-1 IN multimer formation – biochemical, TR-FRET, counter-screen for LEDGF/p75 integration inhibitor project, dose response (AID 1053171)

Row | SMILES | IC50
1 | C[n+]1c2cc(N)ccc2cc2ccc(N)cc21 | > 17.9 µM (inactive)
2 | O=C1NC(=Nc2ccc(O)cc2)S/C1=C\C=C\c1ccco1 | inactive
3 | N/C(=N\N=C/c1ccc(-c2ccc(O)c(C(=O)O)c2)o1)N[N+](=O)[O-] | 4.54 µM
4 | Cc1cc(C(=O)N/N=C/c2ccc(O)c([N+](=O)[O-])c2)c(C)n1-c1ccc(F)cc1 | inactive
5 | O=C1CCCC(O)=C1N=Nc1ccc(C(=O)O)cc1 | 2.72 µM
6 | O=c1cc2c(=O)oc3cc(O)c(O)oc3c2c(O)c1O | 0.354 µM
7 | Cc1c(CC(=O)N2CCN(C(=O)C3COc4ccccc4O3)CC2)c(=O)oc2c(O)c(O)ccc12 (centres undefined) | > 53.7 µM (inactive)
8 | O=C1c2cc(O)c(O)cc2OC(c2ccc(O)c(O)c2)C1O (centres undefined) | inactive
9 | CN(C)C1C(=O)C(C(N)=O)=C(O)C2(O)C(=O)C3=C(O)c4c(O)cccc4C(C)(O)C3C(O)C12 (centres undefined) | inactive
10 | NS(=O)(=O)c1ccc(N/N=C/c2ccc(O)c(O)c2O)c([N+](=O)[O-])c1 | 3.4 µM
11 | O=c1c(O)c(-c2ccc(O)c(O)c2)oc2cc(O)cc(O)c12 | 5.34 µM
12 | NC(=O)c1ccc(N=Cc2c(O)n(Cc3ccco3)c(=O)[nH]c2=O)cc1 | > 53.7 µM (inactive)
13 | O=C1C=C(Nc2ccccc2O)c2ccccc2C1=O | inactive
14 | O=C1C=C(O)c2[nH]c(=O)ccc2C1=O | 7.38 µM
15 | COc1cc(C)cc(C(=O)O)c1C1=C(O)c2cccc(O)c2C(=O)C1=O | inactive
16 | C=C1c2cccc(O)c2C(O)=C2C(=O)[C@]3(O)C(O)=C(C(N)=O)C(=O)[C@@H](N(C)C)[C@@H]3[C@@H](O)[C@H]12 | 8.53 µM
17 | O=C1C=C(O)c2c(O)cc(O)c(O)c2C1=O | 0.085 µM
18 | O=[N+]([O-])c1ccccc1NC(=S)N/N=C/c1ccc(O)c(O)c1 | inactive
19 | O=C1/C(=C\c2ccc(O)c(O)c2)C(c2ccccc2)=NN1c1ccccc1 | 8.68 µM
20 | O=c1c(O)c(-c2ccc(O)c(O)c2)oc2cc(O)ccc12 | 1.45 µM
21 | CN(C)c1ccc(O)c2c1CC1CC3[C@@H](N(C)C)C(=O)C(C(N)=O)=C(O)[C@]3(O)C(=O)C1=C2O (some centres undefined) | 2.53 µM
22 | CC1=NN(c2cccc(C(=O)O)c2)C(=O)/C1=C\C=C\c1ccco1 | 1.41 µM
23 | CN(C)[C@@H]1C(=O)C(C(N)=O)=C(O)[C@@]2(O)C(=O)C3=C(O)c4c(O)cccc4[C@@](C)(O)C3[C@H](O)C12 (some centres undefined) | inactive
24 | O=[N+]([O-])c1cc(Br)c(O)c(C=Nc2ccc(N3CCOCC3)cc2)c1 | > 53.8 µM (inactive)
